{"source": "patent US6500610B1", "about": "“Methods for identifying compounds for inhibiting of neoplastic lesions, and pharmaceutical compositions containing such compounds” (Cell Pathways, INC, priority 1997, dated 2002)", "key": {"[1]": {"tested_on": "SW-480 colon adenocarcinoma cells", "test": "Apoptosis fold induction / DNA fragmentation protocol"}, "[2]": {"target": "T1, novel cGMP-specific PDE (Peak B) from SW480 cells (Homo sapiens, UniProt O00408)", "T1 construct": "IC50 Peak B (μM)", "test": "cGMP hydrolysis inhibition, novel PDE peak B (Section IA) from SW480", "format": "biochemical", "details": "peak B from SW480, FPLC, 0.25 μM cGMP"}, "[3]": {"tested_on": "novel Peak B from HTB-26 breast cancer cell line", "test": "cGMP PDE activity of peak B from HTB-26", "format": "biochemical", "details": "peak B from HTB-26, 0.25 μM cGMP", "method": "(§1) The novel Peak B was also isolated from two other neoplastic cell lines, a breast cancer cell line, HTB-26 and a prostate cancer cell line, LnCAP by a procedure similar to the one above used to isolate it from SW480. The protocol was modified in several respects. To provide even greater reproducibility to allow comparison of different cell lines, a Pharmacia AKTA FPLC was used to control sample loading and elution on an 18 mL DEAE TrisAcryl M column. SW840 was run by this same procedure multiple times to provide a reference of peak B. 200-400 million cells of SW480 were used for the profiles. 70 million cells of LnCAP were used for a profile (see FIGS. 22 and 23), and in a separate experiment 32 million cells of HTB-26 were used for a profile (see FIGS. 20 and 21). After re-suspending cells in homogenization buffer, samples were manually homogenized. FPLC buffer A was 8 mM TRIS-acetate, 5 mM Mg acetate, 0.1 mM EDTA, pH 7.5 and buffer B was 8 mM TRIS-acetate, 5 mM Mg acetate, 0.1 mM EDTA, 1 M Na acetate, pH 7.5. Supernatants were loaded onto the column at 1 mL per minute, followed by a wash with 60 mL buffer A at 1 mL per minute. A gradient was run from 0-15% buffer B in 60 mL, 15-50% buffer B in 60 mL, and 50-100% buffer B in 16 mL. During the gradient 1.5 mL fractions were collected."}, "[4]": {"tested_on": "novel Peak B from LnCAP prostate cancer cell line", "test": "cGMP PDE activity of peak B from LnCAP", "format": "biochemical", "details": "0.25 μM cGMP", "method": "as §1"}, "[5]": {"target": "T2, cGMP binding sites of the GST-cGB-PDE5 Protein (Homo sapiens, UniProt O76074)", "T2 construct": "made in house; host or cells: E. coli BL21 (DE3)", "test": "cGMP binding assay with GST-cGB-PDE5 fusion protein", "details": "3H-cGMP 2 μM"}, "[6]": {"tested_on": "HT-29 cells", "test": "Growth inhibition, SRB assay, HT-29", "format": "cell-based, human"}, "[7]": {"tested_on": "protein kinase G (PKG) activity in HCT116 colon cancer cells", "test": "PKG activity assay of lysates of drug-treated HCT116 cells", "format": "cell-based", "from_the_text": "To test the effect of cGMP-specific PDE inhibition on neoplasia containing the β-catenin mutation, HCT116 colon cancer cells were employed. HCT116 is known to contain the β-catenin mutation, but is known not to contain the APC mutation.\nThe same procedure is used to grow the HCT116 cells as is used in the SW480 procedure described above. In this experiment, only exisulind and controls were used."}, "[8]": {"tested_on": "cGMP PDE from human colon HT-29 cultured tumor cells", "test": "cGMP PDE inhibition assay", "format": "biochemical"}, "[9]": {"tested_on": "premalignant lesions in mouse mammary gland organ culture", "test": "Mammary gland organ culture model", "format": "cell-based", "from_the_text": "Test compounds identified by the above methods can be tested for antineoplastic activity by their ability to inhibit the incidence of pre-neoplastic lesions in a mammary gland organ culture system. This mouse mammary gland organ culture technique has been successfully used by other investigators to study the effects of known antineoplastic agents such as certain NSAIDs, retinoids, tamoxifen, selenium, and certain natural products, and is useful for validation of the screening method of the present invention.\nFor example, female BALB/c mice can be treated with a combination of estradiol and progesterone daily, in order to prime the glands to be responsive to hormones in vitro. The animals are sacrificed, and thoracic mammary glands are excised aseptically and incubated for ten days in growth media supplemented with insulin, prolactin, hydrocortisone, and aldosterone. DMBA (7,12 dimethylbenz(a)anthracene) is added to medium to induce the formation of premalignant lesions. Fully developed glands are then deprived of prolactin, hydrocortisone, and aldosterone, resulting in the regression of the glands but not the pre-malignant lesions.\nThe test compound is dissolved in DMSO and added to the culture media for the duration of the culture period. At the end of the culture period, the glands are fixed in 10% formalin, stained with alum carmine, and mounted on glass slides. The incidence of forming mammary lesions is the ratio of the glands with mammary lesions to […]. The incidence of mammary lesions in test compound treated glands is compared with that of the untreated glands.\nThe extent of the area occupied by the mammary lesions can be quantitated by projecting an image of the gland onto a digitation pad. The area covered by the gland is traced on the pad and considered as 100% of the area. The space covered by each of the non-regressed structures is also outlined on the digitization pad and quantitated by the computer.\nMammary gland organ culture experiment were performed as previously described (Mehta and Moon, Cancer Research, 46:5832-5835, 1986). […]"}, "[10]": {"tested_on": "patients", "test": "Safety evaluation in exisulind clinical trials", "format": "in vivo", "method": "In these exisulind trials and several others involving the drug in other indications, safety was evaluated by monitoring adverse events (AEs), clinical laboratory tests (hematology, serum chemistry, and urinalysis), vital signs (blood pressure, pulse rate, respiratory rate, temperature, and weight), physical examination, and upper endoscopy."}, "[11]": {"target": "T3, cyclooxygenase (Type 1), COX-I (Ovis aries, UniProt P05979)", "T3 sequence (P05979 25-600)": "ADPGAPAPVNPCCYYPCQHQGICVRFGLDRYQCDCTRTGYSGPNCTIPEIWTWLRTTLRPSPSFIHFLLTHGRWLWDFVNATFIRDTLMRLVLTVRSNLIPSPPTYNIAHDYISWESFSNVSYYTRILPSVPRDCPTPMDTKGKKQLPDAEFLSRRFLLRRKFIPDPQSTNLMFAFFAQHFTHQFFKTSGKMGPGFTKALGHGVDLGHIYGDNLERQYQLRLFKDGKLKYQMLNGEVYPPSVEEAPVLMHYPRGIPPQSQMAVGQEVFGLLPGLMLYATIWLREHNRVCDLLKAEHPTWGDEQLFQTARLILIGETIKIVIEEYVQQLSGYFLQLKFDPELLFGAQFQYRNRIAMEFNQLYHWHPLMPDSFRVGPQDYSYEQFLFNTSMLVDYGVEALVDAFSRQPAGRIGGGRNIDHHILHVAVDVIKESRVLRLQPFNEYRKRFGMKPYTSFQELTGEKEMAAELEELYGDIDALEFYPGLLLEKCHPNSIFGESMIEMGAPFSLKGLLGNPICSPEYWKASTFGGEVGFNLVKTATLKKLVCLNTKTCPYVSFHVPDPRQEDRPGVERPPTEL", "test": "COX inhibition assay, purified cyclooxygenase"}, "[12]": {"tested_on": "β-catenin in SW480 cells", "test": "Western blot of β-catenin in SW480 cells", "format": "cell-based, human", "details": "SW480, 200, 400 or 600 μM, 48 hours", "method": "SW480 cells treated with exisulind as described previously are harvested from the microfuge tubes by rinsing once with ice-cold PBS. The cells are lysed by modified RIPA buffer for 15 minutes with agitation. The cell lysate is spun down in a cold room. The supernatants are transferred to fresh microcentrifuge tubes immediately after spinning. BioRad DC Protein Assay (Temecula, Calif.) is performed to determine the protein concentrations in samples. The samples are normalized for protein concentration, as described above.\n50 μg of each sample is loaded to 10% SDS gel. SDS-PAGE is performed, and the proteins then are transferred to a nitrocellulose membrane. The blotted nitrocellulose membrane are blocked in freshly prepared TBST containing 5% nonfat dry milk for one hour at room temperature with constant agitation.\nSW480 cells were treated with exisulind or vehicle (0.1% DMSO) for 48 hours. 50 μg supernatant of each cell lysates were loaded to 10% SDS-gel and blotted to nitrocellulose membrane, and the membrane was probed with rabbit-anti-β-catenin and rabbit anti-PKG antibodies.\nThis observation was made by culturing SW480 cells with either 200, 400 or 600 μM exisulind or vehicle (0.1% DMSO). The cells are harvested 48 hours post treatment and processed for immunoblotting. Immuno-reactive protein can be detected by Western blot. […]"}, "[13]": {"tested_on": "HT-29 cells", "test": "Growth inhibition, viable cell count after trypan blue staining", "format": "cell-based, human", "details": "HT-29, 120 μM", "method": "Growth inhibition (15A top) was measured by counting viable cells after trypan blue staining. Apoptosis (15B bottom) was measured by morphological determination following staining with acridine orange and ethidium bromide as described previously (Duke and Cohen, in: Current Protocols in Immunology, 3.17.1-3.17.16, New York, John Wiley and Sons, 1992). […] All data were collected from the same experiment."}, "[14]": {"tested_on": "HT-29 cells", "test": "Apoptosis and necrosis by morphology (acridine orange, ethidium bromide) in HT-29", "format": "cell-based, human", "from_the_text": "Apoptosis occurs naturally during normal tissue turnover and during embryonic development of organs and limbs. Apoptosis also is induced by cytotoxic T-lymphocytes and natural killer cells, by ionizing radiation and by certain chemotherapeutic drugs. Inappropriate regulation of apoptosis is thought to play an important role in many pathological conditions including cancer, AIDS, or Alzheimer's disease, etc. Compounds can be screened for induction of apoptosis using cultures of tumor cells maintained under conditions as described above. Treatment of cells with test compounds involves either pre- or post-confluent cultures and treatment for two to seven days at various concentrations. Apoptotic cells are measured in both the attached and “floating” compartments of the cultures. […]\nApoptotic and necrotic cell death was determined previously (Duke and Cohen, In: Current Protocols in Immunology, 3.17.1 -3.17.16, New York, John Wiley and Sons, 1992). […]\nThe apoptosis inducing activity for a series of phosphodiesterase inhibitors was determined. […] Apoptosis and necrosis were determined morphologically after acridine orange and ethidium bromide labeling in accordance with the assay described, supra."}, "[15]": {"tested_on": "HT-29 cells", "test": "cGMP and cAMP levels in HT-29 cells by radioimmunoassay", "format": "cell-based, human", "details": "HT-29 cells treated 30 minutes"}}, "note": "pIC50: −log10 of the molar value.", "data": [{"smiles": "CCCCCC[C@@H]([C@@H](C)O)n1cnc2c(N)ncnc21", "note": "(racemic) [EHNA]", "values": [{"measurement": "Fold induction at 100 μM (apoptosis)", "setting": "[1]", "value": "<2.0", "unit": "fold"}]}, {"smiles": "O=C([O-])C1CCN(c2nc(NCc3ccc4c(c3)OCO4)c3cc(Cl)ccc3n2)CC1.[Na+]", "note": "[Compound E4021]", "values": [{"measurement": "sensitivity of peak B cGMP PDE activity", "setting": "[2]", "value": "resistant to 100 nM E4021"}, {"measurement": "sensitivity of peak B cGMP PDE activity", "setting": "[3]", "value": "resistant to 100 nM E4021"}, {"measurement": "sensitivity of peak B cGMP PDE activity", "setting": "[4]", "value": "resistant to 100 nM E4021"}, {"measurement": "competition with cGMP in binding of GST-cGB-PDE5", "setting": "[5]", "value": "None of the PDE5 inhibitors showed any competition with cGMP"}, {"measurement": "Growth % Inhibition at 100 μM", "setting": "[6]", "value": "<50", "unit": "%"}]}, {"smiles": "CC1=C(CC(=O)O)c2cc(F)ccc2/C1=C\\c1ccc(S(C)(=O)=O)cc1", "note": "[Exisulind, 5-fluoro-2-methyl-1-(p-methylsulfonylbenzylidene)-3-indenylacetic acid]", "values": [{"measurement": "PKG activity relative to control", "setting": "[7]", "value": "PKG activation occurred"}, {"measurement": "cGMP PDE % Inhibition at 10 μM", "setting": "[8]", "value": 39, "unit": "%"}, {"measurement": "inhibition of formation of premalignant lesions", "setting": "[9]", "value": "effectively inhibit the formation of premalignant lesions"}, {"measurement": "dose-limiting adverse events", "setting": "[10]; human, in vivo", "value": "elevations in liver function tests (LFTs)"}, {"measurement": "safety issues in clinical trials", "setting": "[10]; human, in vivo", "value": "No outstanding safety issues have been demonstrated"}, {"measurement": "apoptosis rates in paired biopsies", "setting": "[10]; polyp and normal colonic tissues in APC patients", "value": "increased apoptosis rates in polyp, but not normal colonic tissues"}, {"measurement": "pIC50", "setting": "[11]", "value": "< 2.00"}, {"measurement": "reduction of expression of β-catenin", "setting": "[12]", "value": 50, "unit": "%"}, {"measurement": "competition with cGMP in binding of GST-cGB-PDE5", "setting": "[5]", "value": "None of the PDE5 inhibitors showed any competition with cGMP"}]}, {"smiles": "CSc1ccc(/C=C2/C(C)=C(CC(=O)O)c3cc(F)ccc32)cc1", "note": "[Sulindac sulfide]", "values": [{"measurement": "growth inhibition, viable cell count time course", "setting": "[13]", "value": "capable of inhibiting tumor cell growth"}, {"measurement": "apoptosis, time course", "setting": "[14]; HT-29, 120 μM", "value": "accompanied by an increase in apoptosis"}, {"measurement": "apoptotic and necrotic cell death", "setting": "[14]; HT-29, treated six days", "value": "capable of causing apoptotic cell death without inducing necrosis"}, {"measurement": "cGMP PDE % Inhibition at 10 μM", "setting": "[8]", "value": 97, "unit": "%"}, {"measurement": "inhibition of formation of premalignant lesions", "setting": "[9]", "value": "inactive"}, {"measurement": "increase of levels of cGMP", "setting": "[15]", "value": "greater than 50%"}, {"measurement": "levels of cAMP", "setting": "[15]", "value": "unaffected"}, {"measurement": "competition with cGMP in binding of GST-cGB-PDE5", "setting": "[5]", "value": "None of the PDE5 inhibitors showed any competition with cGMP"}]}]}
